Reference: US20070015937A1, “PROCESS FOR RECOVERY OF FLUORINATED CARBOXYLIC ACID SURFACTANTS FROM EXHAUST GAS” (priority 2005, published 2007)
Marks after values point to notes of the source that are not given here.

Experiment: Determination of bio-accumulation: urinary clearance pharmacokinetic study in rats
Settings: oral gavage; for Compound-related Effects: clinical signs of toxicity and gross necropsy at 96 hours post-dose
[1] = recovery of administered amount in urine after 96 h, 73 micro Moles per kg body weight, N=3
[2] = renal half-life, 73 micro Moles per kg body weight, N=3, urine by fluorine NMR, exponential least squares curve fitting
[3] = no parent compound observed in the urine, based on elimination of the major metabolite C3F7—O—CHFCOO−, 73 micro Moles per kg

% Recovery (96 h) [1] | T½ [2] | % Recovery (96 h) [3] | T½ (h) [3] | Compound | Compound-related Effects (73 micro Moles per kg) | T½ (h) [2]
73% | – | – | – | N.O=C(O)C(F)(F)OC(F)(F)C(F)(F)C(F)(F)OC(F)(F)F [Compound 1, CF3—O—(CF2)3—O—CF2—COONH4] | – | –
96% | 12 h | – | – | N.O=C(O)C(F)(F)OC(F)(F)OC(F)(F)F [Compound 2, CF3—OCF2—O—CF2—COONH4] | – | –
50% | – | – | – | N.O=C(O)C(F)(F)OC(F)(F)C(F)(F)C(F)(F)OC(F)(F)F [Compound 4, CF3—(OCF2)3—OCF2—COONH4] | – | –
97% | 11 h | – | – | N.O=C(O)C(F)(F)OC(F)(F)C(F)(F)C(F)(F)F [Compound 5, C3F7—O—CF2—COONH4] | – | –
100% | 10 h | – | – | N.O=C(O)C(F)(F)C(F)(F)OC(F)(F)C(F)(F)F [Compound 7, C2F5—O—CF2—CF2—COONH4] | – | –
82% | 12 h | – | – | N.O=C(O)C(F)(F)C(F)(F)OC(F)(F)C(F)(F)C(F)(F)F [Compound 8, C3F7—O—CF2—CF2—COONH4] | – | –
84% | 12 h | – | – | N.O=C(O)C(F)(F)C(F)OC(F)(F)C(F)(F)C(F)(F)OC(F)(F)F (centres unmarked) [Compound 11, CF3—O—CF2—CF2—CF2—O—CHF—CF2—COONH4] | – | –
94% | 11 h | – | – | N.O=C(O)C(F)(F)C(F)OC(F)(F)C(F)(F)C(F)(F)F (centres unmarked) [Compound 13, C3F7—O—CFH—CF2COONH4] | – | –
– | – | 65* % | 13* h | N.O=C(O)COC(F)(F)C(F)OC(F)(F)C(F)(F)C(F)(F)F (centres unmarked) [Compound 16, C3F7—O—CFH—CF2—O—CH2—COONH4] | – | –

The remaining lines, values behind:

Compound | % Recovery (96 h) [1] | T½ [2] | % Recovery (96 h) [3] | T½ (h) [3] | Compound-related Effects (73 micro Moles per kg) | T½ (h) [2]
N.O=C(O)C(F)(F)OC(F)(F)OC(F)(F)OC(F)(F)F [Compound 3, CF3—OCF2—OCF2—OCF2—COONH4] | 100% | 12 h | – | – | – | –
N.O=C(O)C(F)(F)C(F)(F)OC(F)(F)F [Compound 6, CF3—O—CF2—CF2—COONH4] | 100% | 11 h | – | – | – | –
N.O=C(O)C(F)(F)C(F)(F)OC(F)(F)C(F)(F)C(F)(F)C(F)(F)F [Compound 9, C4F9—O—CF2—CF2—COONH4] | 42% | 31 h | – | – | Hepatomegaly | –
N.O=C(O)C(F)(F)OC(F)(F)C(F)(F)OC(F)(F)C(F)(F)F [Compound 10, C2F5—O—CF2—CF2—O—CF2—COONH4] | 99% | 10 h | – | – | – | –
N.O=C(O)C(F)OC(F)(F)C(F)(F)C(F)(F)OC(F)(F)F (centres unmarked) [Compound 12, CF3—O—CF2—CF2—CF2—O—CHF—COONH4] | 95% | 11 h | – | – | – | –
N.O=C(O)C(F)(F)C(F)(F)C(F)(F)C(F)(F)C(F)(F)OC(F)C(F)(F)F (centres unmarked) [Compound 14, CF3—CFH—O—(CF2)5—COONH4] | 32% | 24 h | – | – | Hepatomegaly | –
N.O=C(O)C(F)(F)C(F)(F)C(F)(F)OC(F)C(F)(F)F (centres unmarked) [Compound 15, CF3—CFH—O—(CF2)3—COONH4] | 95% | 8 h | – | – | – | –
N.O=C(O)C(F)(F)C(F)(F)C(F)(F)C(F)(F)C(F)(F)C(F)(F)C(F)(F)F [Compound C-1, C7F15COONH4, reference compound] | 6% | – | – | – | Hepatomegaly | ˜550 h
CF3CF2CF2OCF(CF3)CF2OCF2COONH4 [Compound C-3, reference compound] | 5% | 95 h | – | – | Hepatomegaly | –
